This note sets out measurements from patent US6380231B1 (priority 1995, dated 2002).

By melting point is commonly meant the temperature, or range, at which the solid turns liquid.

As for `CO/C=C(/C(=O)OC)c1ccccc1COc1ncn(-c2ccccc2Cl)n1` [Compound 12, Methyl α-(2-(N′-(o-chlorophenyl)-triazolyl-3′-oxymethyl)-phenyl)-β-methoxyacrylate], the melting point was found to be 120 °C.
